{
  "source": "PubChem BioAssay AID1259407",
  "about": "(Chemical Carcinogenesis Research Information System (CCRIS), 2018)",
  "system": "CCRIS mutagenicity, Ames/micronucleus/aberration tests",
  "test": "CCRIS mutagenicity studies",
  "key": {"[1]": {"settings": "Test System: AMES SALMONELLA TYPHIMURIUM, Strain/Indicator: TA100, Metabolic Activation: NONE, Method: PREINCUBATION"}, "[2]": {"settings": "Test System: AMES SALMONELLA TYPHIMURIUM, Strain/Indicator: TA98, Metabolic Activation: RAT, LIVER, S-9, AROCLOR 1254, Method: STANDARD PLATE"}},
  "note": "Active and inactive are the calls of the source. No rule for the calls is given here.",
  "data": [
    {"smiles": "NS(=O)(=O)c1cc2c(cc1Cl)NCNS2(=O)=O", "values": [
      {"measurement": "mutagenic call", "setting": "End Point: IN VITRO CHROMOSOMAL ABERRATIONS, Test System: CHINESE HAMSTER OVARY CELLS, Metabolic Activation: NONE", "result": "inactive; negative"},
      {"measurement": "mutagenic call", "setting": "End Point: IN VITRO CHROMOSOMAL ABERRATIONS, Test System: CHINESE HAMSTER OVARY CELLS, Metabolic Activation: RAT, LIVER, S-9, AROCLOR 1254", "result": "inactive; negative"},
      {"measurement": "mutagenic call", "setting": "End Point: IN VITRO CHROMOSOMAL ABERRATIONS, Test System: CHO CELLS, Metabolic Activation: NONE", "result": "inactive; negative"},
      {"measurement": "mutagenic call", "setting": "End Point: IN VITRO CHROMOSOMAL ABERRATIONS, Test System: CHO CELLS, Metabolic Activation: RAT, LIVER, S-9, AROCLOR 1254", "result": "inactive; negative"},
      {"measurement": "mutagenic call", "setting": "Test System: AMES SALMONELLA TYPHIMURIUM, Strain/Indicator: TA98, Metabolic Activation: HAMSTER, LIVER, S-9, AROCLOR 1254, Method: PREINCUBATION", "result": "inactive; negative"},
      {"measurement": "mutagenic call", "setting": "Test System: AMES SALMONELLA TYPHIMURIUM, Strain/Indicator: TA98, Metabolic Activation: RAT, LIVER, S-9, AROCLOR 1254, Method: PREINCUBATION", "result": "inactive; negative"},
      {"measurement": "mutagenic call", "setting": "Test System: AMES SALMONELLA TYPHIMURIUM, Strain/Indicator: TA100, Metabolic Activation: HAMSTER, LIVER, S-9, AROCLOR 1254, Method: PREINCUBATION", "result": "inactive; negative"},
      {"measurement": "mutagenic call", "setting": "[1]", "result": "inactive; negative"},
      {"measurement": "mutagenic call", "setting": "Test System: AMES SALMONELLA TYPHIMURIUM, Strain/Indicator: TA100, Metabolic Activation: RAT, LIVER, S-9, AROCLOR 1254, Method: PREINCUBATION", "result": "inactive; negative"},
      {"measurement": "mutagenic call", "setting": "Test System: AMES SALMONELLA TYPHIMURIUM, Strain/Indicator: TA1535, Metabolic Activation: HAMSTER, LIVER, S-9, AROCLOR 1254, Method: PREINCUBATION", "result": "inactive; negative"},
      {"measurement": "mutagenic call", "setting": "Test System: AMES SALMONELLA TYPHIMURIUM, Strain/Indicator: TA1535, Metabolic Activation: NONE, Method: PREINCUBATION", "result": "inactive; negative"},
      {"measurement": "mutagenic call", "setting": "Test System: AMES SALMONELLA TYPHIMURIUM, Strain/Indicator: TA1535, Metabolic Activation: RAT, LIVER, S-9, AROCLOR 1254, Method: PREINCUBATION", "result": "inactive; negative"},
      {"measurement": "mutagenic call", "setting": "Test System: AMES SALMONELLA TYPHIMURIUM, Strain/Indicator: TA1537, Metabolic Activation: HAMSTER, LIVER, S-9, AROCLOR 1254, Method: PREINCUBATION", "result": "inactive; negative"},
      {"measurement": "mutagenic call", "setting": "Test System: AMES SALMONELLA TYPHIMURIUM, Strain/Indicator: TA1537, Metabolic Activation: RAT, LIVER, S-9, AROCLOR 1254, Method: PREINCUBATION", "result": "inactive; negative"},
      {"measurement": "mutagenic call", "setting": "Test System: MOUSE LYMPHOMA, Strain/Indicator: L5178Y (TK+/TK-), Metabolic Activation: NONE, Method: SUSPENSION/PLATE", "result": "active; positive"}
    ]},
    {"smiles": "CCc1cccc(CC)c1N", "values": [
      {"measurement": "mutagenic call", "setting": "Test System: AMES SALMONELLA TYPHIMURIUM, Strain/Indicator: TA98, Metabolic Activation: NONE, Method: PREINCUBATION", "result": "inactive; negative"},
      {"measurement": "mutagenic call", "setting": "Test System: AMES SALMONELLA TYPHIMURIUM, Strain/Indicator: TA98, Metabolic Activation: NONE, Method: STANDARD PLATE", "result": "inactive; negative"},
      {"measurement": "mutagenic call", "setting": "Test System: AMES SALMONELLA TYPHIMURIUM, Strain/Indicator: TA98, Metabolic Activation: RAT, LIVER, MICROSOMES, PHENOBARBITAL, Method: PREINCUBATION", "result": "inactive; negative"},
      {"measurement": "mutagenic call", "setting": "[2]", "result": "active; positive"},
      {"measurement": "mutagenic call", "setting": "[1]", "result": "inactive; negative"},
      {"measurement": "mutagenic call", "setting": "Test System: AMES SALMONELLA TYPHIMURIUM, Strain/Indicator: TA100, Metabolic Activation: NONE, Method: STANDARD PLATE", "result": "inactive; negative"},
      {"measurement": "mutagenic call", "setting": "Test System: AMES SALMONELLA TYPHIMURIUM, Strain/Indicator: TA100, Metabolic Activation: RAT, LIVER, MICROSOMES, PHENOBARBITAL, Method: PREINCUBATION", "result": "inactive; negative"},
      {"measurement": "mutagenic call", "setting": "Test System: AMES SALMONELLA TYPHIMURIUM, Strain/Indicator: TA100, Metabolic Activation: RAT, LIVER, S-9, AROCLOR 1254, Method: STANDARD PLATE", "result": "active; positive"},
      {"measurement": "mutagenic call", "setting": "Test System: Ames Salmonella typhimurium, Strain/Indicator: TA97, Metabolic Activation: None, Method: Suspension", "result": "active; positive"},
      {"measurement": "mutagenic call", "setting": "Test System: Ames Salmonella typhimurium, Strain/Indicator: TA98, Metabolic Activation: None, Method: Suspension", "result": "active; positive"},
      {"measurement": "mutagenic call", "setting": "Test System: Ames Salmonella typhimurium, Strain/Indicator: TA100, Metabolic Activation: None, Method: Preincubation", "result": "inactive; negative"},
      {"measurement": "mutagenic call", "setting": "Test System: Ames Salmonella typhimurium, Strain/Indicator: TA1535, Metabolic Activation: None, Method: Suspension", "result": "inactive; negative"},
      {"measurement": "mutagenic call", "setting": "Test System: Ames Salmonella typhimurium, Strain/Indicator: TA1537, Metabolic Activation: None, Method: Suspension", "result": "inactive; negative"},
      {"measurement": "mutagenic call", "setting": "Test System: Ames Salmonella typhimurium, Strain/Indicator: TA1538, Metabolic Activation: None, Method: Suspension", "result": "active; positive (weak response; no dose response)"}
    ]},
    {"smiles": "COc1ccc(-c2oc3ccccc3c(=O)c2[N+](=O)[O-])cc1[N+](=O)[O-]", "values": [
      {"measurement": "mutagenic call", "setting": "Test System: AMES SALMONELLA TYPHIMURIUM, Strain/Indicator: TA100, Metabolic Activation: RAT LIVER S-9, AROCLOR 1254, Method: STANDARD PLATE", "result": "active; positive"},
      {"measurement": "mutagenic call", "setting": "Test System: AMES SALMONELLA TYPHIMURIUM, Strain/Indicator: YG1042, Metabolic Activation: RAT LIVER S-9, AROCLOR 1254, Method: STANDARD PLATE", "result": "active; positive"}
    ]},
    {"smiles": "NC(Cn1ccnc1)C(=O)O", "note": "(stereo not given)", "values": [
      {"measurement": "mutagenic call", "setting": "Test System: AMES SALMONELLA TYPHIMURIUM, Strain/Indicator: TA98, Metabolic Activation: NONE", "result": "inactive; negative"},
      {"measurement": "mutagenic call", "setting": "Test System: AMES SALMONELLA TYPHIMURIUM, Strain/Indicator: TA100, Metabolic Activation: NONE", "result": "inactive; negative"},
      {"measurement": "mutagenic call", "setting": "Test System: AMES SALMONELLA TYPHIMURIUM, Strain/Indicator: TA102, Metabolic Activation: NONE", "result": "inactive; negative"},
      {"measurement": "mutagenic call", "setting": "Test System: AMES SALMONELLA TYPHIMURIUM, Strain/Indicator: TA1535, Metabolic Activation: NONE", "result": "inactive; negative"},
      {"measurement": "mutagenic call", "setting": "Test System: AMES SALMONELLA TYPHIMURIUM, Strain/Indicator: TP2428, Metabolic Activation: NONE", "result": "inactive; negative"},
      {"measurement": "mutagenic call", "setting": "Test System: E. COLI, Strain/Indicator: WP2 UVRA (PKM101), Metabolic Activation: NONE", "result": "active; positive"}
    ]},
    {"smiles": "Cc1ccc2c(c1)c(C)c1c3ccccc3nc-1n2C", "values": [
      {"measurement": "mutagenic call", "setting": "Test System: AMES SALMONELLA TYPHIMURIUM, Strain/Indicator: TA97, Metabolic Activation: RAT, LIVER, S-9, AROCLOR 1254, Method: STANDARD PLATE", "result": "active; positive"},
      {"measurement": "mutagenic call", "setting": "[2]", "result": "active; positive"},
      {"measurement": "mutagenic call", "setting": "Test System: AMES SALMONELLA TYPHIMURIUM, Strain/Indicator: TA102, Metabolic Activation: RAT, LIVER, S-9, AROCLOR 1254, Method: STANDARD PLATE", "result": "active; positive"}
    ]}
  ]
}
